Laboratory results published in PubChem BioAssay (NCI).
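Five concentrations, 48 hours, 96-well plates. GI50 = concentration required for 50% inhibition of growth. TGI is the concentration that stops growth completely.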

What was measured:
Assay in all cases: NCI anticancer screen, dose series, 48 h
LOX IMVI melanoma = tested on: LOX IMVI melanoma
MDA-MB-231 breast = tested on: MDA-MB-231 breast
HOP-62 NSCLC = tested on: HOP-62 NSCLC
K-562 leukemia = tested on: K-562 leukemia
U251 CNS = tested on: U251 CNS
RXF 393 renal = tested on: RXF 393 renal
HOP-92 NSCLC = tested on: HOP-92 NSCLC
HCT-116 colon = tested on: HCT-116 colon
SN12C renal = tested on: SN12C renal
HT29 colon = tested on: HT29 colon
RPMI-8226 leukemia = tested on: RPMI-8226 leukemia
A498 renal = tested on: A498 renal
UACC-257 melanoma = tested on: UACC-257 melanoma
NCI-H23 lung = tested on: NCI-H23 lung
PC-3 prostate = tested on: PC-3 prostate
SF-268 CNS = tested on: SF-268 CNS
NCI-H522 lung = tested on: NCI-H522 lung
SW-620 colon = tested on: SW-620 colon
NCI/ADR-RES ovarian = tested on: NCI/ADR-RES ovarian
UO-31 renal = tested on: UO-31 renal
HS 578T breast = tested on: HS 578T breast
HCT-15 colon = tested on: HCT-15 colon
EKVX NSCLC = tested on: EKVX NSCLC
ACHN renal = tested on: ACHN renal
SF-295 CNS = tested on: SF-295 CNS
786-0 renal = tested on: 786-0 renal
SK-OV-3 ovarian = tested on: SK-OV-3 ovarian
SK-MEL-2 melanoma = tested on: SK-MEL-2 melanoma
OVCAR-8 ovarian = tested on: OVCAR-8 ovarian
SNB-19 CNS = tested on: SNB-19 CNS
DU-145 prostate = tested on: DU-145 prostate
NCI-H226 lung = tested on: NCI-H226 lung
SK-MEL-28 melanoma = tested on: SK-MEL-28 melanoma
NCI-H460 lung = tested on: NCI-H460 lung
MCF7 breast = tested on: MCF7 breast
MDA-MB-435 = tested on: MDA-MB-435
OVCAR-5 ovarian = tested on: OVCAR-5 ovarian
IGROV1 ovarian = tested on: IGROV1 ovarian
OVCAR-3 ovarian = tested on: OVCAR-3 ovarian
CAKI-1 renal = tested on: CAKI-1 renal
OVCAR-4 ovarian = tested on: OVCAR-4 ovarian
TK-10 renal = tested on: TK-10 renal
UACC-62 melanoma = tested on: UACC-62 melanoma
A549 NSCLC = tested on: A549 NSCLC
MOLT-4 leukemia = tested on: MOLT-4 leukemia
KM12 colon = tested on: KM12 colon
MALME-3M melanoma = tested on: MALME-3M melanoma
BT-549 breast = tested on: BT-549 breast
HCC-2998 colon = tested on: HCC-2998 colon
T-47D breast = tested on: T-47D breast
SK-MEL-5 melanoma = tested on: SK-MEL-5 melanoma
COLO 205 colon = tested on: COLO 205 colon
M14 melanoma = tested on: M14 melanoma
SF-539 CNS = tested on: SF-539 CNS

C=C1C(=O)O[C@H]2[C@H]1CC/C(COC(=O)NCc1ccc(Cn3c(=O)sn(CCI)c3=O)cc1)=C\CC[C@@]1(C)O[C@@H]21
GI50 (LOX IMVI melanoma): 1.69 µM | TGI (LOX IMVI melanoma): 3.11 µM | GI50 (MDA-MB-231 breast): 1.77 µM | TGI (MDA-MB-231 breast): 3.31 µM | GI50 (HOP-62 NSCLC): 11.7 µM | TGI (HOP-62 NSCLC): 24.2 µM | GI50 (K-562 leukemia): 0.655 µM | TGI (K-562 leukemia): > 100 µM | GI50 (U251 CNS): 4.67 µM | TGI (U251 CNS): 16 µM | GI50 (RXF 393 renal): 1.61 µM | TGI (RXF 393 renal): 3.13 µM | GI50 (HOP-92 NSCLC): 1.38 µM | TGI (HOP-92 NSCLC): 2.76 µM | GI50 (HCT-116 colon): 1.76 µM | TGI (HCT-116 colon): 3.27 µM | GI50 (SN12C renal): 2.16 µM | TGI (SN12C renal): 5.38 µM | GI50 (HT29 colon): 2.1 µM | TGI (HT29 colon): 4.05 µM | GI50 (RPMI-8226 leukemia): 1.98 µM | TGI (RPMI-8226 leukemia): 5.11 µM | GI50 (A498 renal): 4.44 µM | TGI (A498 renal): 20 µM | GI50 (UACC-257 melanoma): 2.24 µM | TGI (UACC-257 melanoma): 4.82 µM | GI50 (NCI-H23 lung): 3.46 µM | TGI (NCI-H23 lung): 13.6 µM | GI50 (PC-3 prostate): 1.75 µM | TGI (PC-3 prostate): 3.33 µM | GI50 (SF-268 CNS): 2.41 µM | TGI (SF-268 CNS): 6.26 µM | GI50 (NCI-H522 lung): 1.72 µM | TGI (NCI-H522 lung): 3.36 µM | GI50 (SW-620 colon): 1.66 µM | TGI (SW-620 colon): 3.25 µM | GI50 (NCI/ADR-RES ovarian): 20.3 µM | TGI (NCI/ADR-RES ovarian): 47.2 µM | GI50 (UO-31 renal): 1.65 µM | TGI (UO-31 renal): 3.11 µM | GI50 (HS 578T breast): 7.29 µM | TGI (HS 578T breast): 42.4 µM | GI50 (HCT-15 colon): 1.91 µM | TGI (HCT-15 colon): 4.1 µM | GI50 (EKVX NSCLC): 2.11 µM | TGI (EKVX NSCLC): 5.58 µM | GI50 (ACHN renal): 1.89 µM | TGI (ACHN renal): 3.37 µM | GI50 (SF-295 CNS): 13.6 µM | TGI (SF-295 CNS): 27.1 µM | GI50 (786-0 renal): 1.82 µM | TGI (786-0 renal): 3.36 µM | GI50 (SK-OV-3 ovarian): 15.2 µM | TGI (SK-OV-3 ovarian): 28.5 µM | GI50 (SK-MEL-2 melanoma): 11.7 µM | TGI (SK-MEL-2 melanoma): 26.2 µM | GI50 (OVCAR-8 ovarian): 4.55 µM | TGI (OVCAR-8 ovarian): 18.9 µM | GI50 (SNB-19 CNS): 6.88 µM | TGI (SNB-19 CNS): 19.9 µM | GI50 (DU-145 prostate): 1.82 µM | TGI (DU-145 prostate): 3.29 µM | GI50 (NCI-H226 lung): 15.1 µM | TGI (NCI-H226 lung): 33.1 µM | GI50 (SK-MEL-28 melanoma): 2.06 µM | TGI (SK-MEL-28 melanoma): 3.74 µM | GI50 (NCI-H460 lung): 6.42 µM | TGI (NCI-H460 lung): 22.7 µM | GI50 (MCF7 breast): 1.71 µM | TGI (MCF7 breast): 3.64 µM | GI50 (MDA-MB-435): 2.45 µM | TGI (MDA-MB-435): 6.62 µM | GI50 (OVCAR-5 ovarian): 3.27 µM | TGI (OVCAR-5 ovarian): 10.1 µM | GI50 (IGROV1 ovarian): 2.08 µM | TGI (IGROV1 ovarian): 4.07 µM | GI50 (OVCAR-3 ovarian): 1.64 µM | TGI (OVCAR-3 ovarian): 3.05 µM | GI50 (CAKI-1 renal): 3.79 µM | TGI (CAKI-1 renal): 14 µM | GI50 (OVCAR-4 ovarian): 2.02 µM | TGI (OVCAR-4 ovarian): 4.19 µM | GI50 (TK-10 renal): 1.91 µM | TGI (TK-10 renal): 3.68 µM | GI50 (UACC-62 melanoma): 1.98 µM | TGI (UACC-62 melanoma): 4.08 µM | GI50 (A549 NSCLC): 16.6 µM | TGI (A549 NSCLC): 32.4 µM | GI50 (MOLT-4 leukemia): 1.35 µM | TGI (MOLT-4 leukemia): 5.35 µM | GI50 (KM12 colon): 8.15 µM | TGI (KM12 colon): 23.1 µM | GI50 (MALME-3M melanoma): 1.68 µM | TGI (MALME-3M melanoma): 3.4 µM | GI50 (BT-549 breast): 2.4 µM | TGI (BT-549 breast): 6.08 µM | GI50 (HCC-2998 colon): 10.4 µM | TGI (HCC-2998 colon): 22.5 µM | GI50 (T-47D breast): 1.32 µM | TGI (T-47D breast): 3.06 µM | GI50 (SK-MEL-5 melanoma): 5.37 µM | TGI (SK-MEL-5 melanoma): 17.9 µM | GI50 (COLO 205 colon): 1.86 µM | TGI (COLO 205 colon): 3.55 µM | GI50 (M14 melanoma): 1.82 µM | TGI (M14 melanoma): 3.59 µM | GI50 (SF-539 CNS): 1.72 µM | TGI (SF-539 CNS): 3.18 µM
